Source: patent US20240246964A1 (Arbutus Biopharma Corporation, priority 2021, published 2024)

Target: human PD-L1 (Homo sapiens (Human), UniProt Q9NZQ7)
Test: T cell activation luciferase reporter cell culture system (T Cell Activation Assay)
Type: cell-based
Conditions: luciferase reporter assay; PD-L1 aAPC/CHO-K1 cells with PD-1 effector Jurkat T cells

Chain of human PD-L1 (Q9NZQ7 19-290): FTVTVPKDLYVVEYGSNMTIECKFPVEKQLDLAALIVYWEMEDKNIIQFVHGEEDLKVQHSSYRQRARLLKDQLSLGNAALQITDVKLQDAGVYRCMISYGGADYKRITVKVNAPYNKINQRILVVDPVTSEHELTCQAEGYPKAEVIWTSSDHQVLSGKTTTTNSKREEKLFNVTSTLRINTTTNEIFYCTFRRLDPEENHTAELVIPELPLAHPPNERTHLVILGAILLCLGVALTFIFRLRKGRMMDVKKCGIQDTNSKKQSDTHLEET

Row | EC50 | Compound
1 | 39.2 nM | COc1nc(-c2ccnc(-c3cccc4c3CC[C@@H]4Oc3nc(OC)c(CNC[C@H](C)O)cc3C(F)(F)F)c2Cl)ccc1CNC[C@H](C)O [Example 253, (S)-1-(((3′-Chloro-2′-((S)-1-((5-((((S)-2-hydroxypropyl)amino)methyl)-6-methoxy-3-(trifluoromethyl)pyridin-2-yl)oxy)-2,3-dihydro-1H-inden-4-yl)-6-methoxy-[2,4′-bipyridin]-5-yl)methyl)amino)propan-2-ol]
2 | 305 nM | COc1nc(-c2cccc(-c3ccnc(-c4ccc5c(c4)CCC[C@H]5NC[C@@H]4CCC(=O)N4)c3Cl)c2Cl)ccc1CN1CC2(CNC(=O)C2)C1 [Example 255, 2-((6-(2-chloro-3-(3-chloro-2-((R)-5-((((S)-5-oxopyrrolidin-2-yl)-methyl)-amino)-5,6,7,8-tetrahydronaphthalen-2-yl)pyridin-4-yl)phenyl)-2-methoxypyridin-3-yl)methyl)-2,6-diazaspiro[3.4]octan-7-one]
3 | 168 nM | COc1nc(-c2cccc(-c3ccnc(-c4ccc5c(c4)CCC[C@H]5NC[C@@H]4CCC(=O)N4)c3Cl)c2Cl)ccc1CNC[C@H](C)O [Example 256, (S)-5-((((R)-6-(3-Chloro-4-(2-chloro-3-(5-((((S)-2-hydroxypropyl)amino)methyl)-6-methoxypyridin-2-yl)phenyl)pyridin-2-yl)-1,2,3,4-tetrahydronaphthalen-1-yl)amino)methyl)pyrrolidin-2-one]
4 | ≥ 10000 nM | COc1nc(-c2cccc(-c3ccnc(-c4ccc5c(c4)CCC[C@H]5NC[C@@H]4CCC(=O)N4)c3Cl)c2Cl)ccc1CN[C@H]1CCOC1=O [Example 257, (S)-5-((((R)-6-(3-Chloro-4-(2-chloro-3-(6-methoxy-5-((((S)-2-oxotetrahydrofuran-3-yl)amino)methyl)pyridin-2-yl)phenyl)pyridin-2-yl)-1,2,3,4-tetrahydronaphthalen-1-yl)amino)methyl)pyrrolidin-2-one]
5 | 75.4 nM | COc1nc(-c2cccc(-c3ccnc(-c4cc(OC)c5nc(CNC[C@@H]6CCC(=O)N6)nn5c4)c3Cl)c2Cl)ccc1CNC[C@@H]1CCC(=O)N1 [Example 258, (S)-5-((((6-(2-chloro-3-(3-chloro-2-(8-methoxy-2-(((((S)-5-oxopyrrolidin-2-yl)methyl)amino)methyl)-[1,2,4]triazolo[1,5-a]pyridin-6-yl)pyridin-4-yl)phenyl)-2-methoxypyridin-3-yl)methyl)amino)methyl)pyrrolidin-2-one]
6 | 58.6 nM | COc1nc(-c2cccc(-c3ccnc(-c4cc(OC)c5nc(CN6CC(C)(O)C6)nn5c4)c3Cl)c2Cl)ccc1CNC[C@@H]1CCC(=O)N1 [Example 259, (S)-5-((((6-(2-Chloro-3-(3-chloro-2-(2-((3-hydroxy-3-methylazetidin-1-yl)methyl)-8-methoxy-[1,2,4]triazolo[1,5-a]pyridin-6-yl)pyridin-4-yl)phenyl)-2-methoxypyridin-3-yl)methyl)amino)methyl)pyrrolidin-2-one]
7 | 26.8 nM | COc1nc(-c2cccc(-c3ccnc(-c4cc(OC)c5nc(CN[C@H]6CC[C@H](O)CC6)nn5c4)c3Cl)c2Cl)ccc1CNC[C@@H]1CCC(=O)N1 [Example 260, (S)-5-((((6-(2-Chloro-3-(3-chloro-2-(2-((((1r,4r)-4-hydroxycyclohexyl)amino)methyl)-8-methoxy-[1,2,4]triazolo[1,5-a]pyridin-6-yl)pyridin-4-yl)phenyl)-2-methoxypyridin-3-yl)methyl)amino)methyl)pyrrolidin-2-one]
8 | 126 nM | COc1nc(-c2cccc(-c3ccnc(-c4cc(OC)c5nc(CN6CC(C(=O)O)C6)nn5c4)c3Cl)c2Cl)ccc1CNC[C@@H]1CCC(=O)N1 [Example 261, (S)-1-((6-(3-Chloro-4-(2-chloro-3-(6-methoxy-5-((((5-oxopyrrolidin-2-yl)methyl)amino)methyl)pyridin-2-yl)phenyl)pyridin-2-yl)-8-methoxy-[1,2,4]triazolo[1,5-a]pyridin-2-yl)methyl)azetidine-3-carboxylic acid]
9 | 82.8 nM | COc1nc(-c2cccc(-c3ccnc(-c4cc(OC)c5nc(CNCCC6(C(=O)O)CC6)nn5c4)c3Cl)c2Cl)ccc1CNC[C@@H]1CCC(=O)N1 [Example 262, (S)-1-(2-(((6-(3-Chloro-4-(2-chloro-3-(6-methoxy-5-((((5-oxopyrrolidin-2-yl)methyl)amino)methyl)pyridin-2-yl)phenyl)pyridin-2-yl)-8-methoxy-[1,2,4]triazolo[1,5-a]pyridin-2-yl)methyl)amino)ethyl)cyclopropane-1-carboxylic acid]
10 | 47.7 nM | COc1cc(-c2nccc(-c3cccc(-c4ccc5c(CN(C)C6CCN(C(C)=O)CC6)cn(C)c5n4)c3Cl)c2Cl)ccc1CNC1CCN(C(C)=O)CC1 [Example 264, 1-(4-((4-(4-(3-(3-(((1-acetylpiperidin-4-yl)(methyl)amino)methyl)-1-methyl-1H-pyrrolo[2,3-b]pyridin-6-yl)-2-chlorophenyl)-3-chloropyridin-2-yl)-2-methoxybenzyl)amino)piperidin-1-yl)ethan-1-one]
11 | 368 nM | COc1nc(-c2cccc(-c3ccnc(-c4ccc5c(c4)CCC[C@H]5NC[C@@H]4CCC(=O)N4)c3Cl)c2Cl)ccc1CN[C@@H](CCO)C(=O)O [Example 265, ((6-(2-Chloro-3-(3-chloro-2-((R)-5-((((S)-5-oxopyrrolidin-2-yl)methyl)amino)-5,6,7,8-tetrahydronaphthalen-2-yl)pyridin-4-yl)phenyl)-2-methoxypyridin-3-yl)methyl)-L-homoserine]
12 | 85.5 nM | COc1cc(-c2nccc(-c3cccc4c3CC[C@@H]4Oc3nc(OC)c(CNC[C@H](C)O)cc3C(F)(F)F)c2Cl)ccc1CNC[C@H](C)O [Example 270, (S)-1-(((6-(((S)-4-(3-Chloro-2-(4-((((S)-2-hydroxypropyl)amino)methyl)-3-methoxyphenyl)pyridin-4-yl)-2,3-dihydro-1H-inden-1-yl)oxy)-2-methoxy-5-(trifluoromethyl)pyridin-3-yl)methyl)amino)propan-2-ol]
13 | 183 nM | COc1cc(-c2nccc(-c3cccc(-c4ccc(CNC5CCN(C(C)=O)CC5)c(OC)n4)c3Cl)c2C)ccc1CNC1CCN(C(C)=O)CC1 [Example 271, 1-(4-(((6-(3-(2-(4-(((1-Acetylpiperidin-4-yl)amino)methyl)-3-methoxyphenyl)-3-methylpyridin-4-yl)-2-chlorophenyl)-2-methoxypyridin-3-yl)methyl)amino)piperidin-1-yl)ethan-1-one]
14 | 116 nM | COC(=O)CCN1CCc2cc(-c3nccc(-c4cccc(-c5ccc(CN6CC7(CNC(=O)C7)C6)c(OC)n5)c4Cl)c3Cl)cc(OC)c2C1 [Example 273, Methyl 3-(6-(3-chloro-4-(2-chloro-3-(6-methoxy-5-((7-oxo-2,6-diazaspiro[3.4]octan-2-yl)methyl)pyridin-2-yl)phenyl)pyridin-2-yl)-8-methoxy-3,4-dihydroisoquinolin-2(1H)-yl)propanoate]
15 | 114 nM | COc1cc(-c2nccc(-c3cccc(-c4ccc(CNC[C@H](C)O)c(OC)n4)c3Cl)c2C)ccc1CNC[C@H](C)O [Example 274, (S)-1-(((6-(2-Chloro-3-(2-(4-((((S)-2-hydroxypropyl)amino)methyl)-3-methoxyphenyl)-3-methylpyridin-4-yl)-phenyl)-2-methoxypyridin-3-yl)-methyl)-amino)propan-2-ol]
16 | 31.4 nM | COc1cc(-c2nccc(-c3cccc(-c4ccc(CN5CC6(CNC(=O)C6)C5)c(OC)n4)c3Cl)c2F)ccc1CN1CC2(CNC(=O)C2)C1 [Example 324, 2-(4-(4-(2-chloro-3-(6-methoxy-5-((7-oxo-2,6-diazaspiro[3.4]octan-2-yl)methyl)pyridin-2-yl)phenyl)-3-fluoropyridin-2-yl)-2-methoxybenzyl)-2,6-diazaspiro[3.4]octan-7-one]
17 | 73.8 nM | COc1cc(-c2nccc(-c3cccc(-c4ccc(CNCC5CCOCC5)c(OC)n4)c3Cl)c2Cl)ccc1CNCC1CCOCC1 [Example 330, 1-(6-(2-Chloro-3-(3-chloro-2-(3-methoxy-4-((((tetrahydro-2H-pyran-4-yl)methyl)amino)methyl)phenyl)pyridin-4-yl)phenyl)-2-methoxypyridin-3-yl)-N-((tetrahydro-2H-pyran-4-yl)methyl)methanamine]
18 | 38.5 nM | CNCc1ccc(-c2nccc(-c3cccc(-c4ccc(CNC)c(OC)n4)c3Cl)c2C)cc1OC [Example 334, 1-(6-(2-Chloro-3-(2-(3-methoxy-4-((methylamino)methyl)phenyl)-3-methylpyridin-4-yl)phenyl)-2-methoxypyridin-3-yl)-N-methylmethanamine]
19 | 49.8 nM | COc1cc(-c2nccc(-c3cccc(-c4ccc(CNC[C@@H]5CCC(=O)N5)c(OC)n4)c3Cl)c2Cl)ccc1[C@H](C)N [Example 335, (S)-5-((((6-(3-(2-(4-((S)-1-Aminoethyl)-3-methoxyphenyl)-3-chloropyridin-4-yl)-2-chlorophenyl)-2-methoxypyridin-3-yl)methyl)amino)methyl)pyrrolidin-2-one]
20 | 95.6 nM | COc1nc(-c2ccnc(-c3cccc4c3CC[C@@H]4Oc3nc(OC)c(CN4CC5(CNC(=O)C5)C4)cc3C(F)(F)F)c2Cl)ccc1CN1CC2(CNC(=O)C2)C1 [Example 336, (S)-2-((3′-Chloro-6-methoxy-2′-(1-((6-methoxy-5-((7-oxo-2,6-diazaspiro[3.4]octan-2-yl)methyl)-3-(trifluoromethyl)pyridin-2-yl)oxy)-2,3-dihydro-1H-inden-4-yl)-[2,4′-bipyridin]-5-yl)methyl)-2,6-diazaspiro[3.4]octan-7-one]
21 | 32.3 nM | COc1cc(-c2nccc(-c3cccc(-c4ccc(CNC5CCN(C(=O)C6CC6)CC5)c(OC)n4)c3Cl)c2Cl)ccc1CNC1CCN(C(=O)C2CC2)CC1 [Example 345, (4-(((6-(2-Chloro-3-(3-chloro-2-(4-(((1-(cyclopropanecarbonyl)piperidin-4-yl)amino)methyl)-3-methoxyphenyl)pyridin-4-yl)phenyl)-2-methoxypyridin-3-yl)methyl)amino)piperidin-1-yl)(cyclopropyl)methanone]

Row | Compound | EC50
22 | COC(=O)CCN1CCc2cc(-c3nccc(-c4cccc(-c5ccc(CNC[C@H](C)O)c(OC)n5)c4Cl)c3Cl)cc(OC)c2C1 [Example 272, Methyl (S)-3-(6-(3-chloro-4-(2-chloro-3-(5-(((2-hydroxypropyl)amino)methyl)-6-methoxypyridin-2-yl)phenyl)pyridin-2-yl)-8-methoxy-3,4-dihydroisoquinolin-2(1H)-yl)propanoate] | 88.2 nM
